Laboratory results as given in PMC6007841 (Journal of medicinal chemistry, 2018).
Several values for one entry are separate records, joined by “and”; a condition that tells them apart may be missing. Equal entries are not always repeated. Each block holds one compound with its values, some of them ahead of it. Bridge positions count the residues as written; N and C are the ends. Ends that are not written are not given here. Peptide text beside a SMILES is read from it.

What was measured:
hMC4R [1] = biological target: T1, hMC4R (Homo sapiens, UniProt P32245); assay: Competitive displacement binding, [125I]-NDP-MSH, hMC4R; conditions: HEK293 cells
T1 sequence (P32245 whole entry): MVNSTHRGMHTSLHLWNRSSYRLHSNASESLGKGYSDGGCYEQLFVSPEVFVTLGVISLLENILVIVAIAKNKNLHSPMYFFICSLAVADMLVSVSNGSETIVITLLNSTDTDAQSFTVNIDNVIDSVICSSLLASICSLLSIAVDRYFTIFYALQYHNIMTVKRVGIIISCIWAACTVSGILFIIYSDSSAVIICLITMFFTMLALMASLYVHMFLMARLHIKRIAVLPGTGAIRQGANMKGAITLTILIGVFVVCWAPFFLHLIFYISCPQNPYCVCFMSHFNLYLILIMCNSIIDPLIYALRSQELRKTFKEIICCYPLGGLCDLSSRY

hMC1R [2] = biological target: T2, hMC1R (Homo sapiens, UniProt Q01726); conditions: human MC1R; HEK293 cells; cited from earlier work
T2 sequence (Q01726 whole entry): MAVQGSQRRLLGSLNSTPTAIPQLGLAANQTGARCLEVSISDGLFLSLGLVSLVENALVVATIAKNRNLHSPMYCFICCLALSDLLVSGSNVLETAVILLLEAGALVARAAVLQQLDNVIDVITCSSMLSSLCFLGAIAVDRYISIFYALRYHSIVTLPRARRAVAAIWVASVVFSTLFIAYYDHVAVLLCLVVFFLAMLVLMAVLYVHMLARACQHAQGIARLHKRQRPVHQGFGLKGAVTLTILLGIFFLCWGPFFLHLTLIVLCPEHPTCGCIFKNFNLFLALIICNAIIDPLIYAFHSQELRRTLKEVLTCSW

hMC1R [3] = biological target: T2, hMC1R; assay: cAMP AlphaScreen agonist assay, hMC1R; conditions: for Agonist efficacy (in words): up to 100 μM, HEK293 cells, cAMP
hMC3R = hMC3R (Homo sapiens, UniProt P41968); assay: cAMP AlphaScreen agonist assay, hMC3R; conditions: for Agonist efficacy (in words): hMC3R, up to 100 μM, HEK293 cells, cAMP
hMC3R, sequence (P41968 whole entry): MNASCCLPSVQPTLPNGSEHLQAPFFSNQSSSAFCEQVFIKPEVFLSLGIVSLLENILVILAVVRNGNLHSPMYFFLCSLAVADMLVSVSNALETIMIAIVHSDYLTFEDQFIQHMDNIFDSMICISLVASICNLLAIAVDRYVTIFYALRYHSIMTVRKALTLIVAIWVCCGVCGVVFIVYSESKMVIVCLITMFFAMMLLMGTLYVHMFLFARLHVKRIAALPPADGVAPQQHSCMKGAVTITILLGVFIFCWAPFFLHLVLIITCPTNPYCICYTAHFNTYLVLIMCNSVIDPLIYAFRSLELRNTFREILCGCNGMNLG

hMC4R [4] = biological target: T1, hMC4R; assay: cAMP AlphaScreen agonist assay, hMC4R; conditions: for Agonist efficacy (in words): hMC4R, up to 100 μM, HEK293 cells, cAMP
hMC5R = hMC5R (Homo sapiens, UniProt P33032); assay: cAMP AlphaScreen agonist assay, hMC5R; conditions: for Agonist efficacy (in words): hMC5R, up to 100 μM, HEK293 cells, cAMP
hMC5R, sequence (P33032 whole entry): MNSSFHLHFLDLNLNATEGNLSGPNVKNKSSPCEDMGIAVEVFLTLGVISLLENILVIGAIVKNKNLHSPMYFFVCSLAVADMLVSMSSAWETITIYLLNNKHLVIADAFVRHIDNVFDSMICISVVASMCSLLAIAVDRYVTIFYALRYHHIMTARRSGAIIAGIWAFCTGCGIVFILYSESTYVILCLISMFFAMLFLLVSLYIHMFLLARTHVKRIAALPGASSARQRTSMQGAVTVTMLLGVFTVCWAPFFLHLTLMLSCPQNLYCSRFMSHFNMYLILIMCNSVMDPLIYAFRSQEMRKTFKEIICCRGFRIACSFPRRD

melanocortin receptors = assay: cAMP agonist pharmacology at the melanocortin receptors; type: cell-based; conditions: cAMP based
mMC5R = mMC5R (Mus musculus, UniProt P41149); assay: cAMP AlphaScreen agonist assay, mMC5R; conditions: for Agonist efficacy (in words): mMC5R, up to 100 μM, HEK293 cells, cAMP
mMC5R, sequence (P41149 whole entry): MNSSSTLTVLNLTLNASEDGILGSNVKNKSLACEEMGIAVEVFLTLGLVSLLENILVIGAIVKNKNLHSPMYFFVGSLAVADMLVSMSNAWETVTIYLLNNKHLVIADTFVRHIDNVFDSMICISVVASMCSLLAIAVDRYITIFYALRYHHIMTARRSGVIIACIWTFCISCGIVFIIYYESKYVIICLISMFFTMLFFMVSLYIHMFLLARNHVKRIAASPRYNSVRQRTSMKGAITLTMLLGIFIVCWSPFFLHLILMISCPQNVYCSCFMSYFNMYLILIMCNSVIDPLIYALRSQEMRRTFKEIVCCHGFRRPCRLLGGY

mMC4R [5] = biological target: T3, mMC4R (Mus musculus, UniProt P56450); assay: Competitive displacement binding, [125I]-NDP-MSH, mMC4R; conditions: HEK293 cells
T3 sequence (P56450 whole entry): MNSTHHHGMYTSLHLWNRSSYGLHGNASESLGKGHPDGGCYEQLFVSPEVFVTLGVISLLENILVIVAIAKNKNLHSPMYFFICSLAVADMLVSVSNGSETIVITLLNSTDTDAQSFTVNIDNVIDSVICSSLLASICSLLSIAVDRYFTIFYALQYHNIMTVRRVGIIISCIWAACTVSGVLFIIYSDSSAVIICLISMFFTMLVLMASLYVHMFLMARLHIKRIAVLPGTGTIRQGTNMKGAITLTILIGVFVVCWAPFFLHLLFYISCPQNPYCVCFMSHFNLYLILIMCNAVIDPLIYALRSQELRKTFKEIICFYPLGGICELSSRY

hMC1R [6] = biological target: T2, hMC1R; assay: Competitive displacement binding, [125I]-NDP-MSH, hMC1R; conditions: HEK293 cells
mMC3R = mMC3R (Mus musculus, UniProt P33033); assay: cAMP AlphaScreen agonist assay, mMC3R; conditions: HEK293 cells; for Agonist efficacy (in words): up to 100 μM
mMC3R, sequence (P33033 whole entry): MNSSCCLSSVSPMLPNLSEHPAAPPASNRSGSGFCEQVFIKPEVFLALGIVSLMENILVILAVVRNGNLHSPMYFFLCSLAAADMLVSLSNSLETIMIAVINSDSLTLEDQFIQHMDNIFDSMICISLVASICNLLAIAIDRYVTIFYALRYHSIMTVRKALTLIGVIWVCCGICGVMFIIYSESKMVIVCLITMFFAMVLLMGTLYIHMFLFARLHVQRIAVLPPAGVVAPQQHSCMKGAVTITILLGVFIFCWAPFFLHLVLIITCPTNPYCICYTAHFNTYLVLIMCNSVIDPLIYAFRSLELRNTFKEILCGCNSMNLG

mice = assay: Fasting feeding paradigm after central administration in cannulated male mice; type: in vivo, mouse; conditions: 100 μg at start of 22 h fast, vs saline
mMC1R = mMC1R (Mus musculus, UniProt Q01727); assay: cAMP AlphaScreen agonist assay, mMC1R; conditions: for Agonist efficacy (in words): mMC1R, up to 100 μM, HEK293 cells, cAMP
mMC1R, sequence (Q01727 whole entry): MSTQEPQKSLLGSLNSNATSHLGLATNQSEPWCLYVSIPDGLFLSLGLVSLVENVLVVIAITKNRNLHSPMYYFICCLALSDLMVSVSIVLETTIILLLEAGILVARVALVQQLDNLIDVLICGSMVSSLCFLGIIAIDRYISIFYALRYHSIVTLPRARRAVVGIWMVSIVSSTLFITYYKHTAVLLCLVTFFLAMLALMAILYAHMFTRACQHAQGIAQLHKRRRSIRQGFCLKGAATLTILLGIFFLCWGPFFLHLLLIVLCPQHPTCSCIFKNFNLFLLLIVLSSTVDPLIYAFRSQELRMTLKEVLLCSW

mMC4R [7] = biological target: T3, mMC4R; assay: cAMP AlphaScreen agonist assay, mMC4R
[8] = HEK293, read-out: Maximal stimulatory response at 100 μM

Compound: FLPKTLRKFFCRIRGGRCAVLNCLGKEEQIGRCSNSGRKCCRKKK (cysteines drawn unpaired) [mBD3*red]
Emax at 100 µM (mMC5R; [8]): 35% | Maximal stimulatory response at 100 μM (mMC3R; 100 μM, relative to maximal NDP-MSH signal): 35% @ 100 μM | Emax at 100 µM (mMC4R [7]; [8]): 40% | Emax at 100 µM (hMC1R [3]; [8]): 45% | EC50 (hMC3R): > 100 µM | Emax at 100 µM (hMC4R [4]; [8]): 50% | Emax at 100 µM (hMC5R; [8]): 40% | Emax at 100 µM (mMC1R; [8]): 40%

Compound: FLPKTLRKFFCRIRGGRCAVLNCLGKEEQIGRCSNSGRKCCRKKK (disulfide 11-40, 18-33, 23-41) [mBD3*]
EC50 (hMC3R): > 100 µM

Compound: GIINTLQKYYCRVRGGRCAVLSCLPKEEQIGKCSTRGRKCCRRKK (cysteines drawn unpaired) [hBD3red]
EC50 (mMC5R): > 100 µM | Agonist efficacy (in words) (mMC5R): unable to stimulate | EC50 (hMC3R): > 100 µM | Agonist efficacy (in words) (hMC3R): unable to stimulate | EC50 (mMC1R): > 100 µM | Agonist efficacy (in words) (mMC1R): unable to stimulate

The next lines start with results.

Agonist efficacy (in words) (hMC1R [3]; hMC1R): Full agonist efficacy | Agonist efficacy (in words) (hMC3R): no activity | Agonist efficacy (in words) (hMC4R [4]): Full agonist efficacy | Agonist efficacy (in words) (hMC5R): no activity
Compound: CC[C@H](C)[C@@H]1NC(=O)[C@H](CCCCN)NC(=O)[C@H]([C@@H](C)O)NC(=O)[C@H](Cc2ccccc2)NC(=O)[C@H]([C@@H](C)CC)NC(=O)[C@@H]2CCCN2C(=O)[C@@H]2CSSC[C@@H](C(=O)N[C@@H](CCCCN)C(=O)O)NC(=O)[C@@H]3CSSC[C@H](NC(=O)[C@H](CC(N)=O)NC(=O)[C@H](Cc4ccc(O)cc4)NC(=O)[C@H](Cc4c[nH]cn4)NC(=O)[C@@H](N)CC(=O)O)C(=O)N[C@@H](C(C)C)C(=O)N[C@@H](CO)C(=O)N[C@@H](CO)C(=O)NCC(=O)NCC(=O)N[C@@H](CCC(N)=O)C(=O)N[C@@H](CSSC[C@H](NC(=O)[C@H]([C@@H](C)O)NC(=O)CNC(=O)[C@H](CCC(N)=O)NC1=O)C(=O)N[C@@H](Cc1ccc(O)cc1)C(=O)N[C@@H](CCCNC(=N)N)C(=O)NCC(=O)N[C@@H](CCCCN)C(=O)N[C@@H](C)C(=O)N[C@@H](CCCCN)C(=O)N3)C(=O)N[C@@H](CC(C)C)C(=O)N[C@@H](Cc1ccc(O)cc1)C(=O)N[C@@H](CO)C(=O)N[C@@H](C)C(=O)N2 [hBD1] (H-DHYNCVSSGGQCLYSACPIFTKIQGTCYRGKAKCCK-OH; disulfide 5-34, 12-27, 17-35; N-terminus and C-terminus assumed)
Displacement of radiolabeled NDP-MSH (in words) (hMC4R [1]): not sufficient displacement of the radiolabel to generate an IC50 values | Binding affinity (hMC1R [2]): 30 nM and 30.0 nM

Agonist efficacy (in words) (hMC1R [3]; hMC1R): partial agonist stimulation | Agonist efficacy (in words) (hMC4R [4]): partial agonist stimulation
Compound: CC[C@H](C)[C@H](NC(=O)[C@H](CCCCN)NC(=O)[C@@H](NC(=O)[C@H](Cc1ccccc1)NC(=O)[C@@H](NC(=O)[C@@H]1CCCN1C(=O)[C@H](CS)NC(=O)[C@H](C)NC(=O)[C@H](CO)NC(=O)[C@H](Cc1ccc(O)cc1)NC(=O)[C@H](CC(C)C)NC(=O)[C@H](CS)NC(=O)[C@H](CCC(N)=O)NC(=O)CNC(=O)CNC(=O)[C@H](CO)NC(=O)[C@H](CO)NC(=O)[C@@H](NC(=O)[C@H](CS)NC(=O)[C@H](CC(N)=O)NC(=O)[C@H](Cc1ccc(O)cc1)NC(=O)[C@H](Cc1c[nH]cn1)NC(=O)[C@@H](N)CC(=O)O)C(C)C)[C@@H](C)CC)[C@@H](C)O)C(=O)N[C@@H](CCC(N)=O)C(=O)NCC(=O)N[C@H](C(=O)N[C@@H](CS)C(=O)N[C@@H](Cc1ccc(O)cc1)C(=O)N[C@@H](CCCNC(=N)N)C(=O)NCC(=O)N[C@@H](CCCCN)C(=O)N[C@@H](C)C(=O)N[C@@H](CCCCN)C(=O)N[C@@H](CS)C(=O)N[C@@H](CS)C(=O)N[C@@H](CCCCN)C(=O)O)[C@@H](C)O [hBD1red] (H-DHYNCVSSGGQCLYSACPIFTKIQGTCYRGKAKCCK-OH; N-terminus and C-terminus assumed)
Agonist activity at the melanocortin receptors (in words) (melanocortin receptors): no activity at the remaining receptor subtypes

Displacement of radiolabeled NDP-MSH (in words) (hMC4R [1]): unable to displace | Displacement of radiolabeled NDP-MSH (in words) (mMC4R [5]): unable to displace | Displacement of radiolabeled NDP-MSH (in words) (hMC1R [6]): unable to displace | Agonist efficacy (in words) (hMC5R): no activity
Compound: CC(C)C[C@@H]1NC(=O)[C@@H]2CSSC[C@@H]3NC(=O)[C@H]([C@@H](C)O)NC(=O)CNC(=O)[C@H](CCC(N)=O)NC(=O)[C@H](CC(C)C)NC(=O)[C@H](CCCCN)NC(=O)[C@H]([C@@H](C)O)NC(=O)[C@H](CC(N)=O)NC(=O)[C@H](CO)NC(=O)[C@@H]4CCCN4C(=O)[C@H](CSSC[C@@H](C(=O)N[C@@H](CCCCN)C(=O)N[C@@H](CO)C(=O)O)NC(=O)[C@H](CSSC[C@H](NC(=O)[C@H](CCCCN)NC(=O)[C@H](Cc4ccc(O)cc4)NC(=O)[C@H](CCC(N)=O)NC(=O)[C@@H](N)CC(=O)O)C(=O)N[C@@H](CC(C)C)C(=O)N[C@@H](CCC(N)=O)C(=O)N[C@@H](Cc4c[nH]cn4)C(=O)NCC(=O)NCC(=O)N[C@@H](Cc4ccccc4)C(=O)N2)NC(=O)[C@H](CC(N)=O)NC(=O)[C@@H]2CCCN2C(=O)[C@H](CCCCN)NC(=O)[C@H](CC(=O)O)NC(=O)[C@@H]2CCCN2C(=O)[C@H](CCCCN)NC3=O)NC(=O)[C@H](CO)NC(=O)[C@H](CO)NC(=O)[C@H](CCCNC(=N)N)NC1=O [mBD1] (H-DQYKCLQHGGFCLRSSCPSNTKLQGTCKPDKPNCCKS-OH; disulfide 5-34, 12-27, 17-35; N-terminus and C-terminus assumed)
Agonist efficacy (in words) (mMC5R): full agonist efficacy with micromolar potency | Agonist efficacy (in words) (mMC3R): full agonist efficacy with micromolar potency | Agonist efficacy (in words) (hMC1R [3]; hMC1R): full agonist efficacy with micromolar potency | Agonist efficacy (in words) (hMC3R): full agonist efficacy with micromolar potency | Agonist efficacy (in words) (hMC4R [4]): full agonist efficacy with micromolar potency | Body weight, specific time points (mice): no significance was observed at specific time points | Cumulative food intake, follow-up analysis at specific time points (mice): follow-up analysis did not result in significance at a specific time point | Agonist efficacy (in words) (mMC1R): full agonist efficacy with micromolar potency

Agonist efficacy (in words) (mMC3R): did not possess agonist activity | Agonist efficacy (in words) (mMC4R [7]; mMC4R, up to 100 μM, HEK293 cells, cAMP): did not possess agonist activity | Lower agonist potency compared to the cyclic mBD1 (hMC1R [3]; hMC1R, EC50 ratio mBD1red vs mBD1): 3 fold | Agonist efficacy (in words) (hMC1R [3]; hMC1R): full agonist | Agonist efficacy (in words) (hMC3R): unable to stimulate | Agonist efficacy (in words) (hMC5R): unable to stimulate
Compound: CC(C)C[C@H](NC(=O)[C@H](CS)NC(=O)[C@H](Cc1ccccc1)NC(=O)CNC(=O)CNC(=O)[C@H](Cc1c[nH]cn1)NC(=O)[C@H](CCC(N)=O)NC(=O)[C@H](CC(C)C)NC(=O)[C@H](CS)NC(=O)[C@H](CCCCN)NC(=O)[C@H](Cc1ccc(O)cc1)NC(=O)[C@H](CCC(N)=O)NC(=O)[C@@H](N)CC(=O)O)C(=O)N[C@@H](CCCNC(=N)N)C(=O)N[C@@H](CO)C(=O)N[C@@H](CO)C(=O)N[C@@H](CS)C(=O)N1CCC[C@H]1C(=O)N[C@@H](CO)C(=O)N[C@@H](CC(N)=O)C(=O)N[C@H](C(=O)N[C@@H](CCCCN)C(=O)N[C@@H](CC(C)C)C(=O)N[C@@H](CCC(N)=O)C(=O)NCC(=O)N[C@H](C(=O)N[C@@H](CS)C(=O)N[C@@H](CCCCN)C(=O)N1CCC[C@H]1C(=O)N[C@@H](CC(=O)O)C(=O)N[C@@H](CCCCN)C(=O)N1CCC[C@H]1C(=O)N[C@@H](CC(N)=O)C(=O)N[C@@H](CS)C(=O)N[C@@H](CS)C(=O)N[C@@H](CCCCN)C(=O)N[C@@H](CO)C(=O)O)[C@@H](C)O)[C@@H](C)O [mBD1red] (H-DQYKCLQHGGFCLRSSCPSNTKLQGTCKPDKPNCCKS-OH; N-terminus and C-terminus assumed)
